According to PubChem BioAssay (NCI):
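Grown in 96-well plates, cells were treated for 48 hours with each compound at five concentrations. Insufficient inhibition: endpoint recorded as highest concentration tested. Here, GI50 denotes the concentration required for 50% inhibition of growth. TGI: total growth inhibition.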

Columns and labels:
Assay in all cases: inhibition of tumour cell growth, NCI panel, 48 h
[1] = tested on: A549 NSCLC
[2] = tested on: ACHN renal
[3] = tested on: BT-549 breast
[4] = tested on: CAKI-1 renal
[5] = tested on: CCRF-CEM leukemia
[6] = tested on: COLO 205 colon
[7] = tested on: DU-145 prostate
[8] = tested on: EKVX NSCLC
[9] = tested on: HCC-2998 colon
[10] = tested on: HCT-116 colon
[11] = tested on: HCT-15 colon
[12] = tested on: HOP-62 NSCLC
[13] = tested on: HOP-92 NSCLC
[14] = tested on: HS 578T breast
[15] = tested on: HT29 colon
[16] = tested on: K-562 leukemia
[17] = tested on: KM12 colon
[18] = tested on: LOX IMVI melanoma
[19] = tested on: M14 melanoma
[20] = tested on: MALME-3M melanoma
[21] = tested on: MCF7 breast
[22] = tested on: MDA-MB-435
[23] = tested on: MOLT-4 leukemia
[24] = tested on: NCI-H23 lung
[25] = tested on: NCI-H460 lung
[26] = tested on: NCI/ADR-RES ovarian
[27] = tested on: OVCAR-3 ovarian
[28] = tested on: OVCAR-4 ovarian
[29] = tested on: OVCAR-5 ovarian
[30] = tested on: OVCAR-8 ovarian
[31] = tested on: PC-3 prostate
[32] = tested on: RPMI-8226 leukemia
[33] = tested on: SF-268 CNS
[34] = tested on: SF-295 CNS
[35] = tested on: SF-539 CNS
[36] = tested on: SK-MEL-28 melanoma
[37] = tested on: SK-MEL-5 melanoma
[38] = tested on: SK-OV-3 ovarian
[39] = tested on: SN12C renal
[40] = tested on: SNB-19 CNS
[41] = tested on: SNB-75 CNS
[42] = tested on: SW-620 colon
[43] = tested on: T-47D breast
[44] = tested on: TK-10 renal
[45] = tested on: U251 CNS
[46] = tested on: UACC-257 melanoma
[47] = tested on: UACC-62 melanoma

Nc1ccccc1C#C/C=C\C#Cc1cnccn1
GI50 [1]: 30.2 µM
TGI [1]: > 100 µM
GI50 [2]: 22.2 µM
TGI [2]: 79.7 µM
GI50 [3]: 20.3 µM
TGI [3]: 70.2 µM
GI50 [4]: 46.3 µM
TGI [4]: > 100 µM
TGI [5]: 14.8 µM
GI50 [6]: 14.5 µM
TGI [6]: 28.5 µM
GI50 [7]: 19.4 µM
TGI [7]: > 100 µM
GI50 [8]: 16.3 µM
TGI [8]: > 100 µM
GI50 [9]: 11 µM
TGI [9]: 23 µM
GI50 [10]: 11.2 µM
TGI [10]: 23.2 µM
GI50 [11]: 26.1 µM
TGI [11]: > 100 µM
GI50 [12]: 13.6 µM
TGI [12]: 32.3 µM
GI50 [13]: 1.36 µM
TGI [13]: 18.3 µM
GI50 [14]: 27 µM
TGI [14]: > 100 µM
GI50 [15]: 23.4 µM
TGI [15]: 74.3 µM
GI50 [16]: 6.66 µM
TGI [16]: > 100 µM
GI50 [17]: 23.3 µM
TGI [17]: > 100 µM
GI50 [18]: 2.93 µM
TGI [18]: 17.5 µM
GI50 [19]: 6.21 µM
TGI [19]: 20.4 µM
GI50 [20]: 19.9 µM
TGI [20]: 58.6 µM
GI50 [21]: 21.3 µM
TGI [21]: > 100 µM
GI50 [22]: 48.4 µM
TGI [22]: > 100 µM
GI50 [23]: 12.4 µM
TGI [23]: 68.5 µM
GI50 [24]: 12.1 µM
TGI [24]: 27 µM
GI50 [25]: 29.8 µM
TGI [25]: > 100 µM
GI50 [26]: 13.7 µM
TGI [26]: 31.9 µM
GI50 [27]: 86.5 µM
TGI [27]: > 100 µM
GI50 [28]: 23.1 µM
TGI [28]: > 100 µM
GI50 [29]: 18.8 µM
TGI [29]: 45.7 µM
GI50 [30]: 41.8 µM
TGI [30]: > 100 µM
GI50 [31]: 4.11 µM
TGI [31]: 23.8 µM
GI50 [32]: 3.17 µM
TGI [32]: 19.2 µM
GI50 [33]: 27.5 µM
TGI [33]: > 100 µM
GI50 [34]: 74.6 µM
TGI [34]: > 100 µM
GI50 [35]: 22.8 µM
TGI [35]: 87.6 µM
GI50 [36]: 27.8 µM
TGI [36]: > 100 µM
GI50 [37]: 6.34 µM
TGI [37]: 21.3 µM
GI50 [38]: 31.1 µM
TGI [38]: 95.5 µM
GI50 [39]: 4.33 µM
TGI [39]: 20.7 µM
GI50 [40]: 36.7 µM
TGI [40]: > 100 µM
GI50 [41]: 21.1 µM
TGI [41]: 90.7 µM
GI50 [42]: 15.2 µM
TGI [42]: 46.1 µM
GI50 [43]: 17.7 µM
TGI [43]: 40.3 µM
GI50 [44]: 32.4 µM
TGI [44]: 60 µM
GI50 [45]: 18.2 µM
TGI [45]: 41.8 µM
GI50 [46]: 26 µM
TGI [46]: > 100 µM
GI50 [47]: 3.95 µM
TGI [47]: 21 µM
